Target: T1, SC6 (GlyT-2 transporter) (Homo sapiens, UniProt Q9Y345)
T1 sequence (Q9Y345 1-797 F124S/A162G/Q184R/D463N/I735T/V751A): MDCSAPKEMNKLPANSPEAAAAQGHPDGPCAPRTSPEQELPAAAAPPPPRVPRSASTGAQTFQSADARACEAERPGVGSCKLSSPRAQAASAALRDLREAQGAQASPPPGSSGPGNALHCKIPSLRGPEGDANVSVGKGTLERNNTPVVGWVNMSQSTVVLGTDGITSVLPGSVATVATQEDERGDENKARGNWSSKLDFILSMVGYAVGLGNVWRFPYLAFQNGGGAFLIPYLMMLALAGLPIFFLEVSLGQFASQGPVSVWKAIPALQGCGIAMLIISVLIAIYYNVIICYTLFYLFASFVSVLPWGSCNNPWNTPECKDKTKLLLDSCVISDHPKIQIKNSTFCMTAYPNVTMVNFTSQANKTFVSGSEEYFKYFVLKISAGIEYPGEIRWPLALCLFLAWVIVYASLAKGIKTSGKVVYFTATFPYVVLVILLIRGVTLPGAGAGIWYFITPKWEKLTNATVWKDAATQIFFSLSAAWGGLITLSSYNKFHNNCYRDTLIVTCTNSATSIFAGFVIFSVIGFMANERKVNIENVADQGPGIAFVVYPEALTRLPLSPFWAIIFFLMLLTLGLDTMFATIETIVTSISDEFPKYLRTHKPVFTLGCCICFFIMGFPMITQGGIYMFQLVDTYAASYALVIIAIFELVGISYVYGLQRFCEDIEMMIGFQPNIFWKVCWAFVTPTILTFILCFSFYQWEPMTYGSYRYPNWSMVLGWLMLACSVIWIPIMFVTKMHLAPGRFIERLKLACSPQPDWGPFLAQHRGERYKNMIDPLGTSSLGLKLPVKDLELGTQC
Experiment: [3H]-glycine uptake assay in HEK-293 cells transiently transfected with SC6
Settings: 1 mM test substance, 1 μM [3H]-glycine, alanine (5 mM) present, HEK-293 cells transfected with SC6, 37° C.

| SMILES | effect on [3H]-glycine uptake |
| --- | --- |
| CNCC(=O)O [sarcosine] | not significantly affected |
| NCC(=O)O [glycine] | almost totally blocked |

— patent US6426405B2, “Neurotransmitter transporter SC6” (SmithKline Beecham P.L.C., priority 1998, dated 2002)
